Assay results from patent publication US4129737A, “Process for the preparation of an 8-alkyl-5-oxo-5,8-dihydro-pyrido(2,3-d)pyrimidine-6-carboxylic acid” (priority 1972, dated 1978).
≈ marks a conversion by molar mass, not a printed value. Like-named read-outs stand apart in the source and are kept apart here.

Experiments:
Pr. mirabilis Nig = assay: Average MIC, solid medium (nutrient agar) dilution method; details: Proteus mirabilis, 18 h, read-out: minimum inhibitory concentration, average
Esch. Coli 95 = assay: Minimum inhibitory concentration by agar dilution, Esch. Coli 95; type: cell-based; details: Escherichia coli, 37° C., 18 hours, read-out: minimum inhibitory concentration (M.I.C.)
Experimental: (§1) (a) Trypticase soya medium (T.S.A.), which is very suitable for culturing the majority of microorganisms; it has the following composition:
(§2) (b) Ordinarily nutrient agar (N.A.), which is less rich in nutrients, corresponds to the following formulation: […]
(§3) Table I gives the minimum inhibitory concentrations (expressed in μg/cm^3) for the various microorganisms tested on each medium.
(§4) The products were tested on three Gram positive microorganisms (1 to 3) […] and on 10 Gram negative microorganisms (4 to 13).
(§5) Table (II) gives the minimum inhibitory concentrations of the compounds of Examples XII to XVI, determined on the agar medium, N.A., and expressed in μg/cm^3.

B. subtilis 6633 = assay: Average MIC, solid medium (nutrient agar) dilution method; details: Bacillus subtilis, 6633, 18 h, read-out: minimum inhibitory concentration, average
Esch. coli. 95 I.S.M. = assay: as above; details: Escherichia coli, 18 h, read-out: minimum inhibitory concentration, average
mice = assay: Oral toxicity in mice; type: in vivo; details: doses as high as 4 g per kilogram
Esch. coli. LRB 45 = assay: Average MIC, solid medium (nutrient agar) dilution method; details: Escherichia coli, 18 h, read-out: minimum inhibitory concentration, average
Ps. aeruginosa A22 = assay: as above; details: Pseudomonas aeruginosa, A22, 18 h, read-out: minimum inhibitory concentration, average
Ps. aeruginosa 72-345 = assay: as above; details: Pseudomonas aeruginosa, 72345, 18 h, read-out: minimum inhibitory concentration, average
Providencia 0223 = assay: as above; details: Providencia, 0223, 18 h, read-out: minimum inhibitory concentration, average
[1] = tested on: Gram-negative microorganisms; assay: In vitro anti-microbial activity on agar media, overall; type: cell-based
Experimental: as §4

Pr. vulgaris = assay: Minimum inhibitory concentration by agar dilution, Pr. vulgaris; type: cell-based; details: Proteus vulgaris, 37° C., 18 hours, read-out: minimum inhibitory concentration (M.I.C.)
Experimental: as §1, §2, §3, §4, §5

Esch. coli. 54-127 OMS = assay: Average MIC, solid medium (nutrient agar) dilution method; details: Escherichia coli, 18 h, read-out: minimum inhibitory concentration, average
S. enteritidis DANYZ = assay: as above; details: Salmonella enterica, 18 h, read-out: minimum inhibitory concentration, average
Sh. sonnei = assay: Minimum inhibitory concentration by agar dilution, Sh. sonnei; type: cell-based; details: Shigella sonnei, 37° C., 18 hours, read-out: minimum inhibitory concentration (M.I.C.)
Experimental: as §1, §2, §3, §4, §5

[2] = Absorption and elimination after oral administration; type: in vivo
S. oranienburg 10-66 = assay: Average MIC, solid medium (nutrient agar) dilution method; details: Salmonella enterica, 1066, 18 h, read-out: minimum inhibitory concentration, average
rats = assay: Oral toxicity in rats; type: in vivo; details: doses as high as 4 g per kilogram
Arizona 6211 = assay: Average MIC, solid medium (nutrient agar) dilution method; details: 18 h, read-out: minimum inhibitory concentration, average
Salm. typhi 0901 = assay: as above; type: cell-based; details: Salmonella enterica, 18 h, read-out: minimum inhibitory concentration, average
Staphylococcus 209P = assay: as above; details: 18 h, read-out: minimum inhibitory concentration, average
Klebs. pneumoniae = assay: Minimum inhibitory concentration by agar dilution, Klebs. pneumoniae; type: cell-based; details: Klebsiella pneumoniae, 37° C., 18 hours, read-out: minimum inhibitory concentration (M.I.C.)
Experimental: as §1, §2, §3, §4, §5

Staphylococcus SIM = assay: Average MIC, solid medium (nutrient agar) dilution method; details: 18 h, read-out: minimum inhibitory concentration, average
Pr. morganii A 236 = assay: as above; details: Morganella morganii, A236, 18 h, read-out: minimum inhibitory concentration, average
Streptococcus DM19 = assay: as above; details: DM19, 18 h, read-out: minimum inhibitory concentration, average
B. pyocyaneus TUR = assay: Minimum inhibitory concentration by agar dilution, B. pyocyaneus TUR; type: cell-based; details: Pseudomonas aeruginosa, 37° C., 18 hours
Experimental: as §1, §2, §3, §4

Esch. coli. Cho = assay: Average MIC, solid medium (nutrient agar) dilution method; details: Escherichia coli, 18 h, read-out: minimum inhibitory concentration, average
Bord. bronchiseptica = assay: Minimum inhibitory concentration by agar dilution, Bord. bronchiseptica; type: cell-based; details: Bordetella bronchiseptica, 37° C., 18 hours, read-out: minimum inhibitory concentration (M.I.C.)
Experimental: as §1, §2, §3, §4, §5

Sh. sonnei I.P.S. = assay: Average MIC, solid medium (nutrient agar) dilution method; type: cell-based; details: Shigella sonnei, 18 h, average of five determinations, read-out: minimum inhibitory concentration, average
B. pyocyaneus A22 = assay: Minimum inhibitory concentration by agar dilution, B. pyocyaneus A22; type: cell-based; details: Pseudomonas aeruginosa, A22, 37° C., 18 hours, read-out: minimum inhibitory concentration (M.I.C.)
Experimental: as §1, §2, §3, §4, §5

[3] = N.A. (nutrient agar, pH 6.8), Table I
[4] = T.S.A. (trypticase soya medium, pH 7.3)

Q: For `CCn1cc(C(=O)O)c(=O)c2cnc(N3CCNCC3)nc21` [Example VIII, 2-Piperazino-5-oxo-8-ethyl-5,8-dihydro-pyrido(2,3-d)pyrimidine-6-carboxylicacid], which MIC (Pr. mirabilis Nig) is on record?
A: Its MIC is 1.58 µg/mL (≈ 5.21 µM).

Q: And the MIC (Esch. Coli 95; [3])?
A: The MIC was 0.8 µg/mL (≈ 2.64 µM).

Q: What about the MIC (Esch. Coli 95; [4]) of the same compound?
A: Its MIC is 0.8 µg/mL (≈ 2.64 µM).

Q: And the MIC (B. subtilis 6633)?
A: The MIC was 8.1 µg/mL (≈ 26.7 µM).

Q: What about the MIC (Esch. coli. 95 I.S.M.) of the same compound?
A: The MIC was 5.14 µg/mL (≈ 16.9 µM).

Q: And the deaths (mice)?
A: Its deaths is “no deaths were observed”.

Q: What about the MIC (Esch. coli. LRB 45) of the same compound?
A: Its MIC is 2.04 µg/mL (≈ 6.73 µM).

Q: And the MIC (Ps. aeruginosa A22)?
A: Its MIC is 12.5 µg/mL (≈ 41.2 µM).

Q: What about the MIC (Ps. aeruginosa 72-345) of the same compound?
A: The MIC was 13.7 µg/mL (≈ 45.3 µM).

Q: What about the MIC (Providencia 0223) of the same compound?
A: The MIC was 16.2 µg/mL (≈ 53.5 µM).

Q: And the “activity against Gram-negative microorganisms” value ([1]; in vitro)?
A: Its value is “particularly active against Gram-negative microorganisms”.

Q: And the “activity compared with nalidixic acid and the acid of Example III” value ([1]; majority of the Gram negative microorganisms, Table III)?
A: The value was “more active on the majority of the Gram negative microorganisms than the 2 other substances”.

Q: And the MIC (Pr. vulgaris; [3])?
A: Its MIC is 6.2 µg/mL (≈ 20.4 µM).

Q: And the MIC (Pr. vulgaris; [4])?
A: Its MIC is 1.6 µg/mL (≈ 5.27 µM).

Q: What about the MIC (Esch. coli. 54-127 OMS) of the same compound?
A: Its MIC is 5.66 µg/mL (≈ 18.7 µM).

Q: What about the MIC (S. enteritidis DANYZ) of the same compound?
A: The MIC was 1.2 µg/mL (≈ 3.96 µM).

Q: And the MIC (Sh. sonnei; [3])?
A: The MIC was 0.8 µg/mL (≈ 2.64 µM).

Q: What about the MIC (Sh. sonnei; [4]) of the same compound?
A: The MIC was 0.8 µg/mL (≈ 2.64 µM).

Q: What about the absorption [2] of the same compound?
A: The absorption was “absorbed rapidly”.

Q: What about the elimination [2] of the same compound?
A: Its elimination is “eliminated principally in the urine”.

Q: And the “urinary concentrations relative to minimum inhibitory concentrations” value ([2]; even with low doses, majority of Gram negative microorganisms)?
A: The value was “very much greater than the minimum inhibitory concentrations”.

Q: What about the MIC (S. oranienburg 10-66) of the same compound?
A: Its MIC is 27.5 µg/mL (≈ 90.7 µM).

Q: And the deaths (rats)?
A: Its deaths is “no deaths were observed”.

Q: What about the MIC (Arizona 6211) of the same compound?
A: Its MIC is 1.26 µg/mL (≈ 4.15 µM).

Q: What about the MIC (Salm. typhi 0901) of the same compound?
A: Its MIC is 2.06 µg/mL (≈ 6.79 µM).

Q: And the MIC (Staphylococcus 209P)?
A: Its MIC is 6.22 µg/mL (≈ 20.5 µM).

Q: What about the MIC (Klebs. pneumoniae; [3]) of the same compound?
A: Its MIC is 0.8 µg/mL (≈ 2.64 µM).

Q: What about the MIC (Klebs. pneumoniae; [4]) of the same compound?
A: The MIC was 1.6 µg/mL (≈ 5.27 µM).

Q: And the MIC (Staphylococcus SIM)?
A: Its MIC is 12.5 µg/mL (≈ 41.1 µM).

Q: What about the MIC (Pr. morganii A 236) of the same compound?
A: The MIC was 0.4 µg/mL (≈ 1.32 µM).

Q: What about the MIC (Streptococcus DM19) of the same compound?
A: The MIC was 100 µg/mL (≈ 330 µM).

Q: And the MIC (B. pyocyaneus TUR; [3])?
A: The MIC was 25 µg/mL (≈ 82.4 µM).

Q: What about the MIC (B. pyocyaneus TUR; T.S.A. (trypticase soya medium, pH 7.3), read-out: minimum inhibitory concentration (M.I.C.)) of the same compound?
A: Its MIC is > 100 µg/mL.

Q: What about the MIC (Esch. coli. Cho) of the same compound?
A: The MIC was 2.66 µg/mL (≈ 8.77 µM).

Q: What about the MIC (Bord. bronchiseptica; [3]) of the same compound?
A: The MIC was 12.5 µg/mL (≈ 41.2 µM).

Q: And the MIC (Bord. bronchiseptica; [4])?
A: The MIC was 50 µg/mL (≈ 165 µM).

Q: And the MIC (Sh. sonnei I.P.S.)?
A: Its MIC is 0.56 µg/mL (≈ 1.85 µM).

Q: What about the MIC (B. pyocyaneus A22; [3]) of the same compound?
A: The MIC was 25 µg/mL (≈ 82.4 µM).

Q: What about the MIC (B. pyocyaneus A22; [4]) of the same compound?
A: The MIC was 12.5 µg/mL (≈ 41.2 µM).
